Results: patent US20240352021A1 (DANA-FARBER CANCER INSTITUTE, INC., priority 2021, published 2024)

Tests used:
[1] = molecular target: EGFR mutant L858R Ba/F3 cells (Homo sapiens, UniProt P00533, L858R, cells depend on it); experiment: Ba/F3 cell proliferation (Cell Titer Glo), EGFR L858R; type: cell-based, murine; details: 72 hours, Table 6, read-out: L858R BaF3
Description: (§1) The EGFR mutant L858R Ba/F3 cells have been previously described (Zhou, W., et al. Nature 462, 2009, 1070-1074). The EGFR C797S and C775S mutations were introduced via site directed mutagenesis using the Quick Change Site-Directed Mutagenesis kit into a vector containing EGFR L858R mutation (Stratagene; La Jolla, CA) according to the manufacturer's instructions. All constructs were confirmed by DNA sequencing. The constructs were then shuttled into the retroviral vector JP1540 by either using the Cre-recombination system (Agilent Technologies, Santa Clara, CA) or the In-fusion HD Cloning kit (Takara Bio USA, Inc.; Mountain view, CA). Ba/F3 cells were then infected with retrovirus per standard protocols, as described previously (Zhou, et al, Nature 2009). Stable clones were obtained by selection in puromycin (2 μg/ml). All BaF/3 mutant cells were maintained in RPMI 1640 (Cellgro; Mediatech Inc., Herndon, CA) supplemented with 10% FBS, 100 units/mL penicillin, 100 units/mL streptomycin.
(§2) Growth and inhibition of growth was assessed by the Cell Titer Glo assay (Promega, Madison, WI) and was performed according to the manufacturer's instructions. The Cell Titer Glo assay is a luminescence-based method used to determine the number of viable cells based on quantitation of the ATP present, which is directly proportional to the amount of metabolically active cells present. Ba/F3 cells of different EGFR genotypes were exposed to compounds for 72 hours and the number of cells used per experiment was determined empirically as has been previously established (Zhou, et al., Nature 2009). All experimental points were set up in triplicates in 384-well plates. […] The curves were fitted using a non-linear regression model with a sigmoidal dose response.
(§3) Ba/F3 cells assay data are provided below in Table 5 and Table 6. For inhibitory activity against EGFR mutants, the following designations are used: <0.1 μM=A, 0.1 μM˜0.5 μM=B, 0.5 μM˜2.5 μM=C, ≥2.5 μM=D

[2] = molecular target: EGFR L858R/C797S Ba/F3 cells (Homo sapiens, UniProt P00533, C797S/L858R, cells depend on it); experiment: Ba/F3 cell proliferation (Cell Titer Glo), EGFR L858R/C797S; type: cell-based, murine; details: 72 hours, Table 6
Chain of EGFR L858R/C797S Ba/F3 cells (P00533 whole entry C797S/L858R): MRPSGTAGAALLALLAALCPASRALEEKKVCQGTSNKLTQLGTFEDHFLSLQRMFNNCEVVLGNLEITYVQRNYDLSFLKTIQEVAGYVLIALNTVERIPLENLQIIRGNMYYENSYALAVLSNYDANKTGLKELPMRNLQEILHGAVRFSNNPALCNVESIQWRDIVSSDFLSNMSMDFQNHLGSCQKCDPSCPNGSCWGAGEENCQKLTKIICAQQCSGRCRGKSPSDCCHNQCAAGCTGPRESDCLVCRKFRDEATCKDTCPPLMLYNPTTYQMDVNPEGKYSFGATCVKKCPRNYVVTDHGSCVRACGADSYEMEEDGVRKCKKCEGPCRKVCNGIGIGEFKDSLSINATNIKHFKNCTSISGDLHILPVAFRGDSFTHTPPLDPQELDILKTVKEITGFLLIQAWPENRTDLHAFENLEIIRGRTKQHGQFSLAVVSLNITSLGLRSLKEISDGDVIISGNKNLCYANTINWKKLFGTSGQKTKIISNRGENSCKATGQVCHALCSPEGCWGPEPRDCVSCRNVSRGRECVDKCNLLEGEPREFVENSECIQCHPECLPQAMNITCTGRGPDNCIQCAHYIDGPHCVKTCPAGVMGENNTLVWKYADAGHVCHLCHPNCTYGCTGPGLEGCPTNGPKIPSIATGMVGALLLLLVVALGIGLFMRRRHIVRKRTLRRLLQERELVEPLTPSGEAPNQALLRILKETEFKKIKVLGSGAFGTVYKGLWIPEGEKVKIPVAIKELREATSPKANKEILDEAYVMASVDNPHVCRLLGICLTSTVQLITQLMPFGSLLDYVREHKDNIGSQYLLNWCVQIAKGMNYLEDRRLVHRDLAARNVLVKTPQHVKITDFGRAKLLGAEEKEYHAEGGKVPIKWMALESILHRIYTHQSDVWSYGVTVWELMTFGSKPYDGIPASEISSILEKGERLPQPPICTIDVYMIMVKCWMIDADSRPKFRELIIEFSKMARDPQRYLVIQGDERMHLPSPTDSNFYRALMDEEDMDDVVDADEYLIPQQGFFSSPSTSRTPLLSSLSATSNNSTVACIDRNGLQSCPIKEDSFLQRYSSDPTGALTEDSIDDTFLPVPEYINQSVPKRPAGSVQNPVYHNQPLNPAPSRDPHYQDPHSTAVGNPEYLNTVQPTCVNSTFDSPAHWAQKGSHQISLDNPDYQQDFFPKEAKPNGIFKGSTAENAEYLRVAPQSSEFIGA
Description: as §1, §2, §3

Chain of EGFR mutant L858R Ba/F3 cells (P00533 whole entry L858R, the tested form may be a part): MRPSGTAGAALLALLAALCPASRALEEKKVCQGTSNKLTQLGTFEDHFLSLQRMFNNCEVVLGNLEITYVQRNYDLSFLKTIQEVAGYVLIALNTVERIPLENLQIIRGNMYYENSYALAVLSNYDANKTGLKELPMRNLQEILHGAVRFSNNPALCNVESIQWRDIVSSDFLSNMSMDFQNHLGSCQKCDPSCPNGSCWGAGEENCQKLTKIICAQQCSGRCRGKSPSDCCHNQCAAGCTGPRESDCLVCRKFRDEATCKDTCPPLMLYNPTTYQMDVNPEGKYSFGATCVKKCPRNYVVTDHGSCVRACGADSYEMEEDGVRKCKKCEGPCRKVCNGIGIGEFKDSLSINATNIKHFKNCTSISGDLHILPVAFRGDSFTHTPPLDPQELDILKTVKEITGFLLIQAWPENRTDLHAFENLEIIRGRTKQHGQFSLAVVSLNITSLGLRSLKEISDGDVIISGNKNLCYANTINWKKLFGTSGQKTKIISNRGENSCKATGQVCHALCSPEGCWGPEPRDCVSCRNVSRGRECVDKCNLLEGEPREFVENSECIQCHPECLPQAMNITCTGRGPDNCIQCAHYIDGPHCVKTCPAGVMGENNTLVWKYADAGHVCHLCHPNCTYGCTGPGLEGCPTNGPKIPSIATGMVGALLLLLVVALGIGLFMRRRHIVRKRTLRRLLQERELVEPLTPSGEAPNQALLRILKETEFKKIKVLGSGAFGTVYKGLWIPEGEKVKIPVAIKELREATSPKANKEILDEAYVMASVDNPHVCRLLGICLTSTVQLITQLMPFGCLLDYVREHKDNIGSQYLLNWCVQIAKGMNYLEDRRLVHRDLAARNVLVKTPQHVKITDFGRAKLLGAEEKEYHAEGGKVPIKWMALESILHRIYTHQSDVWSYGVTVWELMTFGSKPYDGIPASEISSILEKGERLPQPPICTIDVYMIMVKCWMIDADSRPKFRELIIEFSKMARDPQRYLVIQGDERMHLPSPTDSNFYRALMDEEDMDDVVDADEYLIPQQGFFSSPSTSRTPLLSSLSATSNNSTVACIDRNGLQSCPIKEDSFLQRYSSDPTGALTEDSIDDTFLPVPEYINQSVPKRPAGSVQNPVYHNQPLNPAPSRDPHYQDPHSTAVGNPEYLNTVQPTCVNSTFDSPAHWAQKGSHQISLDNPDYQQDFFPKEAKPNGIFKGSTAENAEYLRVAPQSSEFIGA

Row | Structure (SMILES) | GI50 [1] | GI50 [2]
1 | C=CC(=O)N1CCC(N2Cc3cnc(Nc4ccc(S(=O)(=O)NCCO)cc4)nc3N(C)C2=O)c2ccccc21 (centres unmarked) [Compound 084] | ≥ 2500 nM | ≥ 2500 nM
2 | C=CC(=O)N1CCC(N2Cc3cnc(Nc4ccc(N5CCN(C)C6(CC6)C5)cc4)nc3N(C)C2=O)c2ccccc21 (stereo not drawn) [Compound 085, 1-methyl-7-[4-(4-methyl-4,7-diazaspiro[2.5]octan-7-yl)anilino]-S-(1-prop-2-enoyl-3,4-dihydro-2H-quinolin-4-yl)-4H-pyrimido[4,5-d]pyrimidin-2-one] | < 100 nM | < 100 nM
3 | C=CC(=O)N1CCC(N2Cc3cnc(Nc4ccc(CN5CCN(C)CC5)c(Cl)c4)nc3N(C)C2=O)c2ccccc21 (centres unmarked) [Compound 088] | < 100 nM | < 100 nM
4 | C=C(C)C(=O)N1CC[C@H](N2Cc3cnc(Nc4ccc(N5CCN(C)CC5)cc4)nc3N(C)C2=O)c2ccccc21 [Compound 090] | 500 to 2500 nM | 500 to 2500 nM
5 | C/C=C/C(=O)N1CC[C@H](N2Cc3cnc(Nc4ccc(N5CCN(C)CC5)cc4)nc3N(C)C2=O)c2ccccc21 [Compound 091] | 100 to 500 nM | 100 to 500 nM
6 | C=CC(=O)N1CCC(N2Cc3cnc(Nc4ccc(N5CCN(C)CC5)cc4)nc3N(C)C2=O)C2(CCC2)C1 (centres unmarked) [Compound 094] | ≥ 2500 nM | ≥ 2500 nM
7 | CN1CCN(c2ccc(Nc3ncc4c(n3)N(C)C(=O)N([C@H]3CCN(C(=O)CC#N)c5ccccc53)C4)cc2)CC1 [Compound 096] | ≥ 2500 nM | ≥ 2500 nM
8 | C=C(F)C(=O)N1CC[C@H](N2Cc3cnc(Nc4ccc5c(c4)CCN(C)C5)nc3N(C)C2=O)c2ccccc21 [Compound 098] | < 100 nM | < 100 nM
9 | C=CC(=O)N1CCC(N2Cc3cnc(Nc4ccc(N5CCN(C)CC5)cc4)nc3N(C)C2=O)c2cccc(F)c21 (centres unmarked) [Compound 099, 3-(8-fluoro-1-prop-2-enoyl-3,4-dihydro-2H-quinolin-4-yl)-1-methyl-7-[4-(4-methylpiperazin-1-yl)anilino]-4H-pyrimido[4,5-d]pyrimidin-2-one] | < 100 nM | < 100 nM
10 | C=CC(=O)N1CCC(N2Cc3cnc(Nc4ccc(N5CCN(C)CC5)cc4)nc3N(C)C2=O)c2cccc(OC)c21 (centres unmarked) [Compound 100, 3-(8-methoxy-1-prop-2-enoyl-3,4-dihydro-2H-quinolin-4-yl)-1-methyl-7-[4-(4-methylpiperazin-1-yl)anilino]-4H-pyrimido[4,5-d]pyrimidin-2-one] | < 100 nM | < 100 nM
11 | C=C(F)C(=O)N1CC[C@H](N2Cc3cnc(Nc4cnn(CCO)c4)nc3N(C3CCOC3)C2=O)c2ccccc21 (stereo partly drawn) [Compound 102, 3-((S)-1-(2-fluoroacryloyl)-1,2,3,4-tetrahydroquinolin-4-yl)-7-((1-(2-hydroxyethyl)-1 H-pyrazol-4-yl)amino)-1-(tetrahydrofuran-S-yl)-3,4-dihydropyrimido[4,5-d]pyrimidin-2(1H)-one] | < 100 nM | < 100 nM
12 | CN1C(=O)N([C@H]2CCN(C(=O)CC#N)c3ccccc32)Cc2cnc(Nc3cnn(CCO)c3)nc21 [Compound 104] | ≥ 2500 nM | ≥ 2500 nM
13 | C=CC(=O)N1CCC(N2Cc3nnc(Nc4ccc(N5CCN(C)CC5)cn4)cc3N(C)C2=O)c2ccccc21 (centres unmarked) [Compound 105] | ≥ 2500 nM | ≥ 2500 nM
14 | C=C(F)C(=O)N1CC(F)(F)C(N2Cc3cnc(Nc4cnn(CCO)c4)nc3N(C)C2=O)c2ccccc21 (centres unmarked) [Compound 108, 3-[3,3-difluoro-1-(2-fluoroprop-2-enoyl)-2,4-dihydroquinolin-4-yl]-7-[[1-(2-hydroxyethyl)pyrazol-4-yl]amino]-1-methyl-4H-pyrimido[4,5-d]pyrimidin-2-one] | 500 to 2500 nM | ≥ 2500 nM
15 | C=CC(=O)N1CCC(C)(N2Cc3cnc(Nc4cnn(CCO)c4)nc3N(C)C2=O)c2ccccc21 (stereo not drawn) [Compound 112, 7-[[1-(2-hydroxyethyl)pyrazol-4-yl]amino]-1-methyl-S-(4-methyl-1-prop-2-enoyl-2,3-dihydroquinolin-4-yl)-4H-pyrimido[4,5-d]pyrimidin-2-one] | ≥ 2500 nM | ≥ 2500 nM
16 | [2H]C1(N2Cc3cnc(Nc4cnn(CCO)c4)nc3N(C)C2=O)CCN(C(=O)C=C)c2c(OC)cccc21 (centres unmarked) [Compound 129, 3-(4-deuterio-8-methoxy-1-prop-2-enoyl-2,3-dihydroquinolin-4-yl)-7-[[1-(2-hydroxyethyl)pyrazol-4-yl]amino]-1-methyl-4H-pyrimido[4,5-d]pyrimidin-2-one] | 500 to 2500 nM | ≥ 2500 nM

Continued, values first:

Row | GI50 [1] | GI50 [2] | Structure (SMILES)
17 | < 100 nM | < 100 nM | C=CC(=O)N1CCC(N2Cc3cnc(Nc4ccc(N5CCN(C)CC5)cn4)cc3N(C)C2=O)c2ccccc21 (stereo not drawn) [Compound 086, 1-methyl-7-[[5-(4-methylpiperazin-1-yl)-2-pyridyl]amino]-S-(1-prop-2-enoyl-3,4-dihydro-2H-quinolin-4-yl)-4Hpyrido[4,3-d]pyrimidin-2-one]
18 | < 100 nM | < 100 nM | C=CC(=O)N1CCC(N2Cc3cnc(Nc4ccc(N5CCN(C)CC5)cc4OC(F)(F)F)nc3N(C)C2=O)c2ccccc21 (centres unmarked) [Compound 087]
19 | ≥ 2500 nM | ≥ 2500 nM | C=CC(=O)N1CCC(N2Cc3cnc(Nc4ccc(N5CCN(C)CC5)cc4)nc3N(C)C2=O)CC12CCC2 (stereo not drawn) [Compound 089, 1-methyl-7-[4-(4-methylpiperazin-1-yl)anilino]-S-(5-prop-2-enoyl-5-azaspiro[3.5]nonan-8-yl)-4H-pyrimido[4,5-d]pyrimidin-2-one]
20 | ≥ 2500 nM | ≥ 2500 nM | C=CC(=O)N1CCC(N2Cc3nnc(Nc4ccc(N5CCN(C)CC5)cc4)cc3N(C)C2=O)c2ccccc21 (stereo not drawn) [Compound 092, 5-methyl-S-[4-(4-methylpiperazin-1-yl)anilino]-7-(1-prop-2-enoyl-3,4-dihydro-2H-quinolin-4-yl)-8H-pyrimido[5,4-c]pyridazin-6-one]
21 | < 100 nM | < 100 nM | C=C(F)C(=O)N1CC[C@H](N2Cc3cnc(Nc4cnn(CCO)c4)nc3N(C)C2=O)c2ccccc21 [Compound 093]
22 | < 100 nM | < 100 nM | CN1CCN(c2ccc(Nc3ncc4c(n3)N(C)C(=O)N([C@H]3CCN(C(=O)/C=C/CF)c5ccccc53)C4)cc2)CC1 [Compound 095]
23 | 100 to 500 nM | 500 to 2500 nM | C/C=C(\F)C(=O)N1CC[C@H](N2Cc3cnc(Nc4ccc(N5CCN(C)CC5)cc4)nc3N(C)C2=O)c2ccccc21 [Compound 097]
24 | ≥ 2500 nM | ≥ 2500 nM | C/C=C(\C#N)C(=O)N1CC[C@H](N2Cc3cnc(Nc4ccc(N5CCN(C)CC5)cc4)nc3N(C)C2=O)c2ccccc21 [Compound 101]
25 | ≥ 2500 nM | ≥ 2500 nM | CN1C(=O)N([C@H]2CCN(C#N)c3ccccc32)Cc2cnc(Nc3cnn(CCO)c3)nc21 [Compound 103]
26 | ≥ 2500 nM | ≥ 2500 nM | CN1C(=O)N(C2CN(C#N)c3ccccc32)Cc2cnc(Nc3cnn(CCO)c3)nc21 (centres unmarked) [Compound 106, 3-[7-[[1-(2-hydroxyethyl)pyrazol-4-yl]amino]-1-methyl-2-oxo-4H-pyrimido[4,5-d]pyrimidin-S-yl]indoline-1-carbonitrile]
27 | ≥ 2500 nM | ≥ 2500 nM | C=CC(=O)N1c2ccccc2C(N2Cc3cnc(Nc4ccc(N5CCN(C)CC5)cc4)nc3N(C)C2=O)CC1(C)C (centres unmarked) [Compound 107, 3-(1-acryloyl-2,2-dimethyl-1,2,3,4-tetrahydroquinolin-4-yl)-1-methyl-7-((4-(4-methylpiperazin-1-yl)phenyl)amino)-3,4-dihydropyrimido[4,5-d]pyrimidin-2(1H)-one]
28 | < 100 nM | < 100 nM | C=C(F)C(=O)N1CC[C@H](N2Cc3cnc(Nc4ccc5c(c4)CCN(C)C5)nc3N(c3cnn(C)c3)C2=O)c2ccccc21 [Compound 109]
29 | < 100 nM | < 100 nM | C=C(F)C(=O)N1CC[C@H](N2Cc3cnc(Nc4cnn(CCO)c4)nc3N(CC(F)F)C2=O)c2ccccc21 [Compound 110, 1-(2,2-difluoroethyl)-S-[(4S)-1-(2-fluoroprop-2-enoyl)-3,4-dihydro-2H-quinolin-4-yl]-7-[[1-(2-hydroxyethyl)pyrazol-4-yl]amino]-4H-pyrimido[4,5-d]pyrimidin-2-one]
30 | 100 to 500 nM | 500 to 2500 nM | C=C(F)C(=O)N1CC[C@H](N2Cc3cnc(Nc4cnn(CCO)c4)nc3N(c3ccccn3)C2=O)c2ccccc21 [Compound 111]
31 | < 100 nM | 100 to 500 nM | [2H]C1(N2Cc3cnc(Nc4cnn(CCO)c4)nc3N(C3CC3)C2=O)CCN(C(=O)C(=C)F)c2ccccc21 (stereo not drawn) [Compound 113, 1-cyclopropyl-S-[4-deuterio-1-(2-fluoroprop-2-enoyl)-2,3-dihydroquinolin-4-yl]-7-[[1-(2-hydroxyethyl)pyrazol-4-yl]amino]-4H-pyrimido[4,5-d]pyrimidin-2-one]
